“And” between values parts separate entries of the source, which are not always exact repeats. Equal entries are not always repeated.
Experiments:
PKC-α = PKC-α (Homo sapiens, UniProt P17252); settings: cited from earlier work
PKC-β = PKC-β (Homo sapiens, UniProt P05771); settings: cited from earlier work
PKC-ε = molecular target: T1, PKC-ε (Homo sapiens, UniProt Q02156); settings: cited from earlier work
T1 sequence (Q02156 1-737): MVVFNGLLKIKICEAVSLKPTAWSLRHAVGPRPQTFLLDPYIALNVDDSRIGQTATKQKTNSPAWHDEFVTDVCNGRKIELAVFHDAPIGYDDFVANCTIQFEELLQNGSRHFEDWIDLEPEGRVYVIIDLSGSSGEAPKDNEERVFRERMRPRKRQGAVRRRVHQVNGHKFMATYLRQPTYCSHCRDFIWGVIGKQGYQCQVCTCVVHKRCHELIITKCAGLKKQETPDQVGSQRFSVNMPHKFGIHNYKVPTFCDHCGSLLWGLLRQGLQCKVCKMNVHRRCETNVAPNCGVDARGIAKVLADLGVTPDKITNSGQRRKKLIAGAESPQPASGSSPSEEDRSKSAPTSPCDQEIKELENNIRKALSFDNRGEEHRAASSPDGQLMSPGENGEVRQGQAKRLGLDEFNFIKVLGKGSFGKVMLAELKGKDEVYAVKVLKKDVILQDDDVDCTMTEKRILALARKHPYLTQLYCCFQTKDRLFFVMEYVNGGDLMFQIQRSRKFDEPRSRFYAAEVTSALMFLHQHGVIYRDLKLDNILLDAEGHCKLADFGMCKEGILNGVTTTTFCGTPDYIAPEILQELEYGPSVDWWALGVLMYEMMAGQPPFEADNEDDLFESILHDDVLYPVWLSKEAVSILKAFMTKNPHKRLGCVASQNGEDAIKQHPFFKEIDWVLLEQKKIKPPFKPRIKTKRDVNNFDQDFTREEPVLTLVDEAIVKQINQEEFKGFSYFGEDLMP

PKC-ι [1] = molecular target: T2, PKC-ι (Homo sapiens, UniProt P41743); settings: cited from earlier work
T2 sequence (P41743 1-596): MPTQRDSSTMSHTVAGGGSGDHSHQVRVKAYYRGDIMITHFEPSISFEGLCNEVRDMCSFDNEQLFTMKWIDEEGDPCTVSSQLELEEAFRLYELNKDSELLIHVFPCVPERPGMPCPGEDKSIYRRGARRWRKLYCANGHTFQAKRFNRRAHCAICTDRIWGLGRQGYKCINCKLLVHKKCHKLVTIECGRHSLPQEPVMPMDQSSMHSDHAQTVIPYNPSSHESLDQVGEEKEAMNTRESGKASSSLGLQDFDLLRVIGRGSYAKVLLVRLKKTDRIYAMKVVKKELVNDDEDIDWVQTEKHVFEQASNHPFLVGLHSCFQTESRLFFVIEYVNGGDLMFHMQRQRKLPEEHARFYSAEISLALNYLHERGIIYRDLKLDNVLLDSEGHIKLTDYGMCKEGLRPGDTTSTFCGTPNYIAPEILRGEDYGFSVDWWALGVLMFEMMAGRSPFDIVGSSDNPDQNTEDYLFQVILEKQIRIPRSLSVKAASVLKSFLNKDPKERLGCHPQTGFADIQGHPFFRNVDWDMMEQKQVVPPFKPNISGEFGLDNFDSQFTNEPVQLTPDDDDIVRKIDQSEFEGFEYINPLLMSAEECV

PKC-δ = PKC-δ (Homo sapiens, UniProt Q05655); settings: cited from earlier work
HEY ovarian cancer cells [2] = assay: HEY cell proliferation, Trypan blue exclusion assay; type: cell-based, human
Method: HEY human ovarian carcinoma cells were obtained from Dr. Meera Nanjundan's laboratory at the University of South Florida. The cells were grown as a monolayer in a T25 tissue culture flask with 5 mL of growth medium and maintained in a 37° C. incubator with 5% CO2. The RPMI1640 growth medium was obtained from and American Type Culture Collection (ATCC) and Life Technologies (Carlsbad, Calif.). The medium was supplemented with 10% fetal bovine serum (FBS) and a mix of the antibiotics Penicillin (10,000 IU) and Streptomycin (10,000 μg/ml) in a 100× concentration which was purchased from Corning.
HEY cells were cultured in a T25 cell culture flask. 13,000 cells were seeded into each well in a 6-well culture plate. ACPD was weighed and dissolved in water to create a 100 mM stock solution. From this solution, serial dilutions were done to create a 1 mM stock solution which was then used for treatment. In order to assess the effect of ACPD on cell viability, three wells were treated with 2 μM ACPD while the other three wells were left untreated as controls. The treatment period was 72 hours with the growth medium being changed every 24 hours. The cells were also washed with DPBS every time the growth medium was changed. Cell viability was determined at 24, 48 and 72 hours using a Trypan blue exclusion assay where 30 μL of the cell suspension was added to 30 μL of Trypan blue. The number of unstained cells was counted using a hematocytometer. The same procedures were used for ICA-1.
The experiments were performed as per the protocol described by Patel et al. (2008), herein incorporated by reference. Briefly, cells were cultured in T75 flasks in monolayers. For treatment, 40,000 cells were seeded into T75 flasks and treated for 72 hours with ICA-1 and ACPD. The proliferation was measured each day by a Trypan Blue exclusion assay which involved staining the cells with Trypan Blue and counting them under a microscope using a hemocytometer.

HEY ovarian cancer cells [3] = assay: Total RNA concentration of HEY cells (Rneasy Mini Kit, NanoDrop1000); type: cell-based, human; settings: for reduction of total RNA: 2 μM
Source text: RNA was isolated from the treated and untreated cells using the Rneasy Mini Kit and protocol. The total RNA concentration was estimated using the NanoDrop1000 spectrophotometer.

PKC-ζ = molecular target: T3, PKC-ζ (Homo sapiens, UniProt Q05513); settings: cited from earlier work
T3 sequence (Q05513 1-592): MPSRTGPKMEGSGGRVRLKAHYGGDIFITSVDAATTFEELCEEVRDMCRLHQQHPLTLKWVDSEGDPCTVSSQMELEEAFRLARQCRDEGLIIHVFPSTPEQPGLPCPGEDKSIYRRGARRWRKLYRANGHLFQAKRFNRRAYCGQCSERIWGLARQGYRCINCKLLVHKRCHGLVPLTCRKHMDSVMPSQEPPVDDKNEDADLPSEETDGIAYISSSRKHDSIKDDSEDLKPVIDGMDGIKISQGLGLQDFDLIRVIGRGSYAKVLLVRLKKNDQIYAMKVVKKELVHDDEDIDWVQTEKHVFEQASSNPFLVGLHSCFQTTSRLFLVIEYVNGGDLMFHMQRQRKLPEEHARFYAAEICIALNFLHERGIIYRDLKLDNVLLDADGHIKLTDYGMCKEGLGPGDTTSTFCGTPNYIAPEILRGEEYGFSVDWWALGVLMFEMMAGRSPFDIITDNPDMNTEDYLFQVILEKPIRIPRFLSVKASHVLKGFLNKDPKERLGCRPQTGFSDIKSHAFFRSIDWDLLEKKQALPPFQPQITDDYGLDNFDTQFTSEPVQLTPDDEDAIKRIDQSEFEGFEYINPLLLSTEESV

PKC-ι [4] = molecular target: T2, PKC-ι; settings: cited from earlier work; remark: listed apart in the source

PKC-β, sequence (P05771 whole entry, species assumed): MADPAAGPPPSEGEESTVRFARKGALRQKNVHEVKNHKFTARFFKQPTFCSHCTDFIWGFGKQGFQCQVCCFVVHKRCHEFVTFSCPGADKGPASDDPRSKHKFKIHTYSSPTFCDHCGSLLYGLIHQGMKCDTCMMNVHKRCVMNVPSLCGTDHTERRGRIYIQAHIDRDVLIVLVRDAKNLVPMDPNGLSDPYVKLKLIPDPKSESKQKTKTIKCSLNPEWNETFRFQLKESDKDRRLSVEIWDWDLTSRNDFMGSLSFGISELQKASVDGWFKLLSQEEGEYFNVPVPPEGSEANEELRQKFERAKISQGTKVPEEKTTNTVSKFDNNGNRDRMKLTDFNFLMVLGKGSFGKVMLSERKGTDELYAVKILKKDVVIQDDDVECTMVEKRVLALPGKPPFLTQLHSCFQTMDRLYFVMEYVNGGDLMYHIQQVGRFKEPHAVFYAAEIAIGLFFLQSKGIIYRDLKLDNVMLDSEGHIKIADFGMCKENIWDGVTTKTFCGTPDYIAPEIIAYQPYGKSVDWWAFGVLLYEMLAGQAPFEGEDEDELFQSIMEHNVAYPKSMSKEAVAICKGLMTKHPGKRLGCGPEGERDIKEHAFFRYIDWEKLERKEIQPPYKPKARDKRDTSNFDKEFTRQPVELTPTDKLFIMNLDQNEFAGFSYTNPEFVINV
PKC-δ, sequence (Q05655 whole entry): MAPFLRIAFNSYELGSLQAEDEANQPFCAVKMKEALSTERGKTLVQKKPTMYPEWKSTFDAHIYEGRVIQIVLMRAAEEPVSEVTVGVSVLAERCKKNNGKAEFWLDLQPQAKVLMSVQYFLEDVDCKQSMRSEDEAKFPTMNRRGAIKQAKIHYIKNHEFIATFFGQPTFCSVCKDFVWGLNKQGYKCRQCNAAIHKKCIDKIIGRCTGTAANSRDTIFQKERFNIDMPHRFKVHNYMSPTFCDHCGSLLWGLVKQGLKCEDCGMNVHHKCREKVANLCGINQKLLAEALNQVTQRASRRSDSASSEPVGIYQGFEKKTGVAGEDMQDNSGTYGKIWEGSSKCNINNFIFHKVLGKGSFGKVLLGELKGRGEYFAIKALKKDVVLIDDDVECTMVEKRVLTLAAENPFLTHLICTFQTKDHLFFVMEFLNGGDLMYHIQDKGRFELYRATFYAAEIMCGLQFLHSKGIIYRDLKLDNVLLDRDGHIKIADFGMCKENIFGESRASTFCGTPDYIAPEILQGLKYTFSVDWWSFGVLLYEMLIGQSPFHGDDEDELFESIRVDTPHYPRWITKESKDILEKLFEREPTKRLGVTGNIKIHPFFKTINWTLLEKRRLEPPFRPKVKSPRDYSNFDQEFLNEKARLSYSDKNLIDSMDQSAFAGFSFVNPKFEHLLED

Row | Structure (SMILES) | inhibition of PKC-α (PKC-α) | inhibition of PKC-β (PKC-β) | inhibition of PKC-ε (PKC-ε) | inhibition of PKC-ι (PKC-ι [1]) | inhibition of PKC-δ (PKC-δ) | reduction of cell proliferation (HEY ovarian cancer cells [2]; 800 nM, 72 hour treatment) | reduction of cell proliferation (HEY ovarian cancer cells [2]; 1.8 μM, 72 hour treatment) | reduction of cell proliferation (HEY ovarian cancer cells [2]; 2 μM, 24 hours, compared to controls) | reduction of cell proliferation (HEY ovarian cancer cells [2]; 2 μM, 48 hours) | effectiveness in inhibiting cell proliferation relative to ICA-1 (HEY ovarian cancer cells [2]; HEY ovarian cancer cells) | reduction of total RNA concentration (HEY ovarian cancer cells [3]; 1.8 μM, 72 hour treatment) | reduction of total RNA (HEY ovarian cancer cells [3]; 24 hours) | reduction of total RNA (HEY ovarian cancer cells [3]; 48 hours) | reduction of total RNA (HEY ovarian cancer cells [3]; 72 hours) | inhibition of PKC-ζ (PKC-ζ) | binding to PKC-ι (PKC-ι [4])
1 | CC(=O)C1=C(O)CCC1=O [ACPD, 2-acetyl-1,3-cyclopentanedione] | not PKC-α, PKC-β, PKC-δ, or PKC-ε | not PKC-α, PKC-β, PKC-δ, or PKC-ε | not PKC-α, PKC-β, PKC-δ, or PKC-ε | inhibits both PKC-ζ and PKC-ι | not PKC-α, PKC-β, PKC-δ, or PKC-ε | 16% | 28% | 82% and 81.75% | 60.5% and 60% | over five times more effective than ICA-1 | 38% | 97% and 97.4% | 52.4% and 52% | 34.3% and 34% | inhibits both PKC-ζ and PKC-ι | 
2 | O=C([O-])CC([S][Au])C(=O)[O-] (centres unmarked) [Sodium aurothiomalate] |  |  |  |  |  |  |  |  |  |  |  |  |  |  |  | low micromolar range
3 | OC[C@H]1O[C@H]([S][Au])[C@H](O)[C@@H](O)[C@@H]1O [aurothioglucose] |  |  |  |  |  |  |  |  |  |  |  |  |  |  |  | low micromolar range
